Paper PMC10541198, “Specific quinone reductase 2 inhibitors reduce metabolic burden and reverse Alzheimer’s disease phenotype in mice” (The Journal of Clinical Investigation, 2023)
Where “and” joins values, the source holds several entries; their conditions need not be identical. Equal values may be shown once.

System: Sprague Dawley rats
Test: Incidental novel taste learning, microinjection to anterior insular cortex
Type: in vivo, rat
Conditions: 1 μL of 20 μM to aIC
Procedure: In order to evaluate the efficacy of some of the leading QR2is in vivo, we carried out double-blind experiments using 2 different modalities (Supplemental Methods), measuring memory that is dependent on different brain areas. First, cortical memory was tested using incidental novel taste learning (see Methods), in which an unfamiliar, but palatable and safe, taste is given for the first time, and the memory for this newly learned taste is then assessed 2 days later. This is done by measuring the volume of the taste consumed upon subsequent exposure to it ([32]) (Figure 4A). […] Next, hippocampal-dependent learning was evaluated using delay fear conditioning (DFC; see Methods) ([33]). […] In order to evaluate any possible effect of acute QR2i microinjection on metabolic stress in the mouse brain, ISR activation was measured by quantifying total and phosphorylated eukaryotic initiation factor 2 α (eIF2α) levels (Supplemental Figure 3A) and lipid peroxidation product, 4-hydroxynonenal (4-HNE; Supplemental Figure 3B), by immunoblot 3 hours after the injection.
Rats were taught to drink from 2 pipettes each filled with 10 mL of water during a 20 minute period, over 3 days. […] The memory for the novel taste was then assessed after 20 minutes of liquid consumption by calculating a preference index as follows: (novel taste consumed/[novel taste consumed+water consumed]) × 100 ([32], [56]). […]

`Cc1ccc(-c2cn3cccc(C)c3n2)cc1S(=O)(=O)N1CCCC1` [YB-808] was tested, and the “NaCl preference (individual rats)” value was 38.6905 and 81.6144 and 53.3708 and 75.5102 and 61.3924 and 79.4286 and 85.6322 and 50.9317 and 62.1118 and 87.6289 and 81.5476 and 81.8182 and 84.5161 and 50.3067 and 72.807 and 50.2703 and 76.5766 and 61.9048.
